One assay deals with T1, C-C chemokine receptor type 1 (Homo sapiens) (UniProt P32246).
T1 sequence (whole entry): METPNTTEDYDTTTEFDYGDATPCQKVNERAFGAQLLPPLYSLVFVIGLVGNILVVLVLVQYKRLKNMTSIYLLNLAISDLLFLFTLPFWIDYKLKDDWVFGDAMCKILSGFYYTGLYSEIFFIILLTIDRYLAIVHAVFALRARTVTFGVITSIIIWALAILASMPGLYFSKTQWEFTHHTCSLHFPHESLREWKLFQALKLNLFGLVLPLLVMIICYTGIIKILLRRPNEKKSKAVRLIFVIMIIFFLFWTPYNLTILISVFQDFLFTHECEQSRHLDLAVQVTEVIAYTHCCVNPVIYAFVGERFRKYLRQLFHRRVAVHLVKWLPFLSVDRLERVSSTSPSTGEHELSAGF
The assay can be described thus: Inhibition of CCR1 at 10 uM.
`O=C(NC1C[C@@H]2CC[C@@H](C1)N2Cc1ccc2cc(F)ccc2c1)c1ccccc1-c1ccccc1` (relative stereo; 31) returned an inhibition of 40%.

The next assay concerns the target T2, C-C chemokine receptor type 3 (Homo sapiens) (UniProt P51677).
T2 sequence (whole entry): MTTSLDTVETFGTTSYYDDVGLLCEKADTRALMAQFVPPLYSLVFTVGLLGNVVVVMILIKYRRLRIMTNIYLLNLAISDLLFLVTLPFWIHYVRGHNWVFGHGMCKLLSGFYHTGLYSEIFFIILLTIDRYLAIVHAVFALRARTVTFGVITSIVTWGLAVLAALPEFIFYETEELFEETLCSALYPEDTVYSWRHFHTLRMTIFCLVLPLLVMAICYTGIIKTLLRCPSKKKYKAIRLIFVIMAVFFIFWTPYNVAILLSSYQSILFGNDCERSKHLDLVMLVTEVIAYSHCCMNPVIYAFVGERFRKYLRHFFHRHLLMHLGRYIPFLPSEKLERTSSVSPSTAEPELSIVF
As to the kind of experiment: Antagonist activity at CCR3 expressed in B300-19 cells assessed as inhibition of eotaxin-induced calcium influx at 10 uM. The class given is functional, cell-based.
As for `O=C(NC1CCN(Cc2ccc3cc(F)ccc3c2)CC1)c1ccc(-c2ccccc2)cc1`, the inhibition came to 27%. Still for that read-out and setting: for `O=C(Nc1ccccc1)NC1CCN(Cc2ccc3cc(F)ccc3c2)CC1` the value was 31%; for `O=C(NC1CCN(Cc2ccc3cc(F)ccc3c2)CC1)c1ccc(Oc2ccccc2)cc1`, 40%.

Another assay has as its target T3, C-C chemokine receptor type 3 (Homo sapiens, UniProt P51677).
T3 sequence (P51677 whole entry): T2 sequence (whole entry)
As to the kind of experiment: Antagonist activity at CCR3 expressed in B300-19 cells assessed as inhibition of eotaxin-induced calcium influx. It counts as functional, cell-based.
With `COc1cccc(C(=O)NC2CCN(Cc3ccc4cc(F)ccc4c3)CC2)c1`, the half-maximal inhibitory concentration (IC50) is 3.5 µM. For the molecule `O=C(Nc1ccccc1)C1CCN(Cc2ccc3cc(F)ccc3c2)CC1`, the IC50 was determined as 1.7 µM. For the molecule `CN(C(=O)c1ccccc1)C1CCN(Cc2ccc3cc(F)ccc3c2)CC1`, the IC50 came to 0.81 µM. On the same count and under the same terms, for `Fc1ccc2cc(CN3CCC(NCc4ccccc4)CC3)ccc2c1` the value was 0.6 µM; for `O=C(NC1CCN(Cc2ccc3cc(F)ccc3c2)CC1)c1ccccc1`, 1.3 µM.

As for `O=C(NC1CCN(Cc2ccc3cc(F)ccc3c2)CC1)c1cccc(Oc2ccccc2)c1`, the half-inhibitory concentration (IC50) is 1.1 µM.

Turning to `O=C(NC1CCN(C/C=C/c2ccc(F)cc2)CC1)c1ccccc1`, the IC50 was 3.4 µM. Still for that read-out and setting: the value for `O=C(NC1CCN(Cc2ccc3cc(F)ccc3c2)CC1)c1cccc(F)c1` was 0.67 µM; that for `COc1ccccc1C(=O)NC1CCN(Cc2ccc3cc(F)ccc3c2)CC1` was 0.72 µM.

Turning to `O=C(NC1CCN(Cc2ccc3cc(F)ccc3c2)CC1)c1ccccc1Oc1ccccc1`, the half-maximal inhibitory concentration (IC50) is 0.095 µM. As for `O=C(NC1CCN(Cc2ccc3cc(F)ccc3c2)CC1)c1ccccc1F`, the IC50 worked out at 2.9 µM. Take `COc1ccc(C(=O)NC2CCN(Cc3ccc4cc(F)ccc4c3)CC2)cc1`: the IC50 was found to be 2.4 µM.

Consider `O=C(Nc1ccccc1)OC1CCN(Cc2ccc3cc(F)ccc3c2)CC1`, for which the IC50 stood at 4.8 µM. As for `O=S(=O)(NC1CCN(Cc2ccc3cc(F)ccc3c2)CC1)c1ccccc1`, the IC50 was 0.83 µM.

As to `CC1(NC(=O)c2ccccc2-c2ccccc2)CCN(Cc2ccc3cc(F)ccc3c2)CC1`, the concentration for half-maximal inhibition (IC50) came to 2.8 µM.

What is called inhibition is the share of the control response that was lost under treatment. A word on the IC50: it is the concentration needed to halve the response being measured.

The values are drawn from ChEMBL document CHEMBL1143888, “Synthesis and structure-activity relationships of N-{1-[(6-fluoro-2-naphthyl)methyl]piperidin-4-yl}benzamide derivatives as novel CCR3 antagonists” (Bioorg Med Chem, 2008).
